Tests used:
[1] = test system: hepatic disorder caused by carbon tetrachloride; assay: Effect of suppressing hepatic disorder caused by carbon tetrachloride; assay type: in vivo, mice; settings: mean of 5; for Liver disorder index: mice (dd-strain), 250 mg/kg oral in olive oil, 6 h before carbon tetrachloride 0.05 ml/kg oral, visual observation 24 h after, scale 0 healthy, 2 slightly affected, 4 evident disorder, 6 serious disorder; for p-GPT (K.U.): plasma glutamic pyruvic transaminase activity, Reitman-Frankel, mice, 250 mg/kg oral, 6 h before carbon tetrachloride 0.05 ml/kg, 24 h after, values of 2,100 units or higher counted as 2,100
Description: Six hours thereafter, carbon tetrachloride was orally administered in a proportion of 0.05 ml/kg. The animals were sacrificed 24 hours after the administration of carbon tetrachloride, and the extent of liver disorder was examined by visual observation. On the other hand, blood was collected from the animal at the time of the sacrifice, and centrifuged to obtain plasma. The plasma glutamic piruvic transaminase (GPT) activity was determined according to the method of Reitman-Frankel. The activity was expressed in terms of Karmen Units (K.U.). The conditions of the liver were expressed in terms of liver disorder index as follows. […] Mice were used in groups of five and the results of test were represented by the mean value. When the GPT activity was 2,100 units or higher, […], and the activity was calculated as 2,100 units for reasons of convenience.

[2] = Acute oral toxicity (LD50); settings: in vivo, male rat
Description: For example, LD50 value (acute oral toxicity to male rat) of the compound No. 8 is more than 1,000 mg/kg.

| SMILES | Liver disorder index [1] | p-GPT (K.U.) [1] | LD50 [2] |
| --- | --- | --- | --- |
| CC(=O)C(C(=O)c1ccccc1Cl)=C1SCS1 [compound 13] | 0.8 | 13 K.U. | – |
| CC(=O)C(C(=O)c1ccc2ccccc2c1)=C1SCS1 [compound 32] | 0.8 | 18 K.U. | – |
| COc1ccc(C(=O)C(C(C)=O)=C2SCS2)cc1 [compound 7] | 1.2 | 19 K.U. | – |
| COc1cccc(C(=O)C(C(C)=O)=C2SCS2)c1 [compound 6] | 2.0 | 16 K.U. | – |
| COc1cc(C(=O)C(C(C)=O)=C2SCS2)cc(OC)c1OC [compound 10] | 1.8 | 413 K.U. | – |
| COc1ccc(C(=O)C(C(C)=O)=C2SCS2)cc1OC [compound 9] | 0.6 | 11 K.U. | – |
| CC(=O)C(C(=O)c1ccc(F)cc1)=C1SCS1 [compound 17] | 0.4 | 15 K.U. | – |
| CC(=O)C(C(=O)c1ccccc1)=C1SCS1 [Compound No. 1] | 0.7 | 23 K.U. | – |
| CC(=O)C(C(=O)c1ccco1)=C1SCS1 [compound 20] | 0 | 22 K.U. | – |
| CC(=O)C(C(=O)c1ccc(Cl)cc1)=C1SCS1 [compound 14] | 0.2 | 73 K.U. | – |
| COc1cccc(C(=O)C(C(C)=O)=C2SC(c3ccccc3)S2)c1 (stereo not shown) [compound 24] | 3.8 | 1654 K.U. | – |
| O=C(C(C(=O)c1ccccc1)=C1SCS1)c1ccccc1 [compound 22] | 0.5 | 71 K.U. | – |
| CC(=O)C(C(=O)c1cccc(C)c1)=C1SCS1 [Compound No. 2] | 0.8 | 22 K.U. | – |
| CC(C)C(=O)C(C(=O)c1ccccc1Cl)=C1SCS1 [compound 28] | 1.0 | 42 K.U. | – |
| CC(=O)C(C(=O)c1ccc(OCc2ccccc2)cc1)=C1SCS1 [compound 11] | 1.6 | 884 K.U. | – |
| Cc1cccc(C(=O)C(C(=O)c2ccccc2)=C2SCS2)c1 [compound 30] | 0.6 | 19 K.U. | – |
| CC(=O)C(C(=O)c1cccs1)=C1SCS1 [compound 19, 1-(1,3-dithietan-2-ylidene)-1-(2-thiophene-carbonyl)acetone] | 0.2 | 16 K.U. | – |
| CC(=O)C(C(=O)c1ccc(C)cc1)=C1SCS1 [compound 3] | 1.4 | 14 K.U. | – |
| CC(=O)C(C(=O)c1cccnc1)=C1SCS1 [compound 21] | 0.2 | 14 K.U. | – |
| CC(=O)C(C(C)=O)=C1SC(C)S1 (stereo not shown) [compound 25] | 1.2 | 205 K.U. | – |
| COc1ccc(C(=O)C(C(C)=O)=C2SCS2)c(OC)c1 [Compound No. 8] | 0.6 | 54 K.U. | > 1000 mg/kg |
| CC(=O)C(C(=O)c1ccc(Br)cc1)=C1SCS1 [compound 16, 1-(4-bromobenzoyl)-1-(1,3-dithietan-2-ylidene)acetone] | 0 | 15.8 K.U. | – |
| CC(=O)C(C(=O)c1ccc(Cl)cc1Cl)=C1SCS1 [Compound No. 15] | 0.5 | 203 K.U. | – |
| CC(=O)C(C(C)=O)=C1SCS1 [compound 18, 1-acetyl-1-(1,3-dithietan-2-ylidene) acetone] | 1.6 | 1142 K.U. | – |
| CC(=O)C(C(=O)c1ccc(OCc2ccc(Cl)cc2)cc1)=C1SCS1 [compound 12] | 2.8 | 1739 K.U. | – |
| COc1ccccc1C(=O)C(C(C)=O)=C1SCS1 [Compound No. 5, 1-(1,3-dithietan-2-ylidene)-1-(2-methoxybenzoyl)acetone] | 1.0 | 12 K.U. | – |
| CC(=O)C(C(=O)c1ccc(OC(C)C)cc1)=C1SCS1 [compound 29] | 3.4 | 233 K.U. | – |
| CC(=O)C(C(=O)c1ccc(C)c(C)c1)=C1SCS1 [compound 4, 1-(3,4-dimethylbenzoyl)-1-(1,3-dithietan-2-ylidene)acetone] | 0.6 | 23 K.U. | – |
| CC(=O)C(C(=O)c1ccccc1)=C1SC(c2ccccc2)S1 (stereo not shown) [compound 23] | 6.6 | 1668 K.U. | – |
| O=C(C(C(=O)c1ccc(F)cc1)=C1SCS1)c1ccccc1 [compound 31, 1-(1,3-dithietan-2-ylidene)-1-(4-fluorobenzoyl)acetophenone] | 0.4 | 16 K.U. | – |
